Results from the supplement of paper PMC10307832.

Tests used:
Experiment in all cases: relative viability (nuclei count vs DMSO), 5 days (fraction); higher = more cells survive
CUDC-101 + Pemetrexed = compound: C#Cc1cccc(Nc2ncnc3cc(OC)c(OCCCCCCC(=O)NO)cc23)c1 [CUDC-101] + Nc1nc2[nH]cc(CCc3ccc(C(=O)N[C@@H](CCC(=O)O)C(=O)O)cc3)c2c(=O)[nH]1 [Pemetrexed] (partner 0.2 µM)
How it was run: (§1)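 Five library-drug doses in √10 steps were combined with a fixed anchor-drug dose, or a single drug was given alone, by pin tool to lung cancer cell lines in 1536-well plates the day after seeding. Nuclei were stained and counted after 5 days. Relative viability is the nuclei count in treated wells over that in vehicle wells, taken as the median of duplicate plates.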

[1] = compound: C1=CC=C2C(=C1)N=C(S2)C(C#N)C3=NC(=NC=C3)NCCC4=CN=CC=C4 + C[C@@H](Oc1cc(-c2cnn(C3CCNCC3)c2)cnc1N)c1c(Cl)ccc(F)c1Cl [Crizotinib] (partner 1 µM)
How it was run: as §1

CUDC-101 + Phenformin = compound: C#Cc1cccc(Nc2ncnc3cc(OC)c(OCCCCCCC(=O)NO)cc23)c1 [CUDC-101] + N=C(N)NC(=N)NCCc1ccccc1 [Phenformin] (partner 250 µM)
How it was run: as §1

NVP-TAE684 + Dasatinib = compound: COc1cc(N2CCC(N3CCN(C)CC3)CC2)ccc1Nc1ncc(Cl)c(Nc2ccccc2S(=O)(=O)C(C)C)n1 [NVP-TAE684] + Cc1nc(Nc2ncc(C(=O)Nc3c(C)cccc3Cl)s2)cc(N2CCN(CCO)CC2)n1 [Dasatinib] (partner 0.075 µM)
How it was run: as §1

Cell Line | relative viability (CUDC-101 + Pemetrexed; first compound 0.01 µM) | relative viability (CUDC-101 + Pemetrexed; first compound 0.03162 µM) | relative viability (CUDC-101 + Pemetrexed; first compound 0.1 µM) | relative viability (CUDC-101 + Pemetrexed; first compound 0.3162 µM) | relative viability (CUDC-101 + Pemetrexed; first compound 1 µM) | relative viability ([1]; first compound 0.005 µM) | relative viability ([1]; first compound 0.01581 µM) | relative viability ([1]; first compound 0.05 µM) | relative viability ([1]; first compound 0.1581 µM) | relative viability ([1]; first compound 0.5 µM) | relative viability (CUDC-101 + Phenformin; first compound 0.01 µM) | relative viability (CUDC-101 + Phenformin; first compound 0.03162 µM) | relative viability (CUDC-101 + Phenformin; first compound 0.1 µM) | relative viability (CUDC-101 + Phenformin; first compound 0.3162 µM) | relative viability (CUDC-101 + Phenformin; first compound 1 µM) | relative viability (NVP-TAE684 + Dasatinib; first compound 0.2 µM) | relative viability (NVP-TAE684 + Dasatinib; first compound 0.6325 µM) | relative viability (NVP-TAE684 + Dasatinib; first compound 2 µM)
HCC-78 | 0.876 | 0.942 | 0.921 | 0.912 | 0.862 | 0.325 | 0.36 | 0.325 | 0.491 | 0.317 | 0.709 | 0.705 | 0.675 | 0.602 | 0.246 | 0.298 | 0.24 | 0.306
NCI-H2085 | 0.779 | 0.665 | 0.89 | 0.959 | 0.63 | 0.682 | 0.887 | 0.792 | 0.825 | 0.792 | 0.654 | 0.679 | 0.763 | 0.724 | 0.593 | 0.187 | 0.16 | 0.162
COR-L23 | 0.184 | 0.196 | 0.2 | 0.186 | 0.175 | 0.6 | 0.596 | 0.728 | 0.653 | 0.568 | 0.479 | 0.456 | 0.419 | 0.365 | 0.25 | 0.366 | 0.301 | 0.117
HARA | 0.253 | 0.237 | – | 0.243 | 0.176 | 0.928 | 1.11 | 0.957 | 1.22 | 0.978 | 0.4 | 0.397 | 0.476 | 0.501 | 0.248 | 0.24 | 0.172 | 0.141
201T | 0.281 | 0.387 | 0.368 | 0.356 | 0.29 | 0.978 | 1.03 | 1.02 | 1.07 | 0.995 | 0.438 | 0.442 | 0.424 | 0.411 | 0.358 | 0.703 | 0.46 | 0.314
EMC-BAC-2 | 0.464 | 0.399 | 0.46 | 0.394 | 0.354 | 0.645 | 0.769 | 0.704 | 0.766 | 0.581 | 0.616 | 0.472 | 0.549 | 0.487 | 0.365 | 0.291 | 0.292 | 0.199
NCI-H441 | 0.248 | 0.261 | 0.263 | 0.274 | 0.228 | – | 0.486 | 0.691 | 0.834 | 0.554 | 0.88 | 0.486 | 0.764 | 0.917 | 0.776 | 0.461 | 0.398 | 0.216
NCI-H1944 | 0.62 | 0.615 | 0.597 | 0.582 | 0.43 | 1.15 | 1.18 | 1.02 | 1.12 | 1.1 | 0.218 | 0.192 | 0.181 | 0.193 | 0.151 | 0.212 | 0.202 | 0.161
NCI-H1993 | 0.586 | 0.616 | 0.637 | 0.606 | 0.517 | 0.684 | 0.844 | 0.762 | 0.94 | 0.832 | 0.491 | 0.523 | 0.569 | 0.535 | 0.603 | 0.499 | 0.548 | 0.581
ChaGo-K-1 | 0.259 | 0.246 | 0.259 | 0.256 | 0.256 | 0.761 | – | 1.2 | 1.29 | 1.02 | 0.467 | 0.542 | 0.508 | 0.558 | 0.41 | 0.715 | 0.558 | 0.413
NCI-H3122 | 0.19 | 0.21 | 0.191 | 0.209 | 0.22 | 0.245 | 0.305 | 0.279 | 0.296 | 0.296 | 0.382 | 0.361 | 0.389 | 0.356 | 0.338 | 0.239 | 0.119 | 0.0896
NCI-H1651 | 0.614 | 0.579 | 0.579 | 0.577 | 0.523 | 0.746 | 0.883 | 0.855 | 0.864 | 0.849 | 0.34 | 0.352 | 0.371 | 0.415 | 0.432 | 0.326 | 0.321 | 0.146
NCI-H1355 | 0.995 | 1.07 | 0.974 | 1.13 | 1.02 | 1.11 | 1.16 | 1.04 | 1.03 | 0.949 | 0.453 | 0.431 | 0.453 | 0.47 | 0.387 | 0.673 | 0.534 | 0.372
NCI-H596 | 0.466 | 0.538 | 0.482 | 0.644 | 0.472 | 0.864 | 1.03 | 0.939 | 1.16 | 0.952 | 0.886 | 0.729 | 0.751 | 0.772 | 0.698 | 0.629 | 0.397 | 0.286
NCI-H23 | 0.757 | 0.744 | 0.604 | 0.755 | 0.514 | – | 0.602 | 0.433 | 0.544 | 0.35 | 0.793 | 0.743 | 0.81 | 0.851 | 0.789 | – | 0.638 | 0.249
HCC-366 | 0.163 | 0.157 | 0.137 | 0.177 | 0.201 | 0.24 | 0.458 | 0.564 | 0.844 | 0.378 | 0.604 | 0.555 | 0.704 | 0.667 | 0.64 | 0.827 | 0.508 | 0.233
NCI-H2126 | 0.635 | 0.659 | 0.761 | 0.687 | 0.529 | 0.825 | 0.989 | 1.02 | 1.04 | 0.881 | 0.556 | 0.532 | 0.517 | 0.52 | 0.403 | 0.568 | 0.39 | 0.375
LU99A | 0.205 | 0.197 | 0.179 | 0.18 | 0.176 | 0.457 | 0.686 | 0.599 | 0.599 | 0.51 | 0.825 | 0.682 | 0.676 | 0.947 | 0.572 | 0.475 | 0.392 | 0.179
